Measured values from paper PMC2719767 (Bioorganic & medicinal chemistry, 2008).
Where a name gives a salt, the structure may show the parent alone.

What was measured:
D4 receptor [1] = biological target: T1, D4 receptor (Homo sapiens, UniProt P21917); conditions: cloned human D2-like receptors; ref [11]; cited from earlier work
T1 sequence (P21917 1-419): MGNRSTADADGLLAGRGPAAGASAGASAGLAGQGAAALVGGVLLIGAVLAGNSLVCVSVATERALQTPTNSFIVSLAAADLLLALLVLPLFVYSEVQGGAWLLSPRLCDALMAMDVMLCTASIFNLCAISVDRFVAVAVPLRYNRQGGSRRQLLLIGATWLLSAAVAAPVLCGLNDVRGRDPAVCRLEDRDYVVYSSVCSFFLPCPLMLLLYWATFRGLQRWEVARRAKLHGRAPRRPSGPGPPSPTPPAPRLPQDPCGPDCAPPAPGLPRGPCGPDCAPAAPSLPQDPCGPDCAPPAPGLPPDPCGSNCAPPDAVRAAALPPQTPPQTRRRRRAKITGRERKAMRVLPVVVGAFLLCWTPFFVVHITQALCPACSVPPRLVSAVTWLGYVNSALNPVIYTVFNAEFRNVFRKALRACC

D2 receptor [2] = biological target: T2, D2 receptor (Homo sapiens, UniProt P14416); conditions: cloned human D2-like receptors; ref [11]; cited from earlier work
T2 sequence (P14416 whole entry): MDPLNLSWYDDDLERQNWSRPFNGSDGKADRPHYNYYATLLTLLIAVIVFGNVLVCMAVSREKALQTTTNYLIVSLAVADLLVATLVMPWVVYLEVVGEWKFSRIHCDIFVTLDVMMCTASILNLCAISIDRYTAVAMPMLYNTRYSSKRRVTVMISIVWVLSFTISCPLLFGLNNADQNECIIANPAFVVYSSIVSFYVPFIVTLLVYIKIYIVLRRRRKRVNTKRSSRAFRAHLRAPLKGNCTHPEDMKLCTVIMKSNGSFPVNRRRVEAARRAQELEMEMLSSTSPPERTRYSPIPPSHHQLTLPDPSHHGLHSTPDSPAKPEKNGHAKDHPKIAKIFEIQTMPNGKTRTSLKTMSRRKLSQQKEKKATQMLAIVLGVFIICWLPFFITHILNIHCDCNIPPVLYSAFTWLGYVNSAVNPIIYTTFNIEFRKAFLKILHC

D2 receptor [3] = biological target: T2, D2 receptor; assay: D2 receptor binding affinity, Pfizer laboratories; conditions: same assay procedure in the same laboratory
D4 receptor [4] = biological target: T1, D4 receptor; assay: D4 receptor binding affinity, Pfizer laboratories; conditions: for D2/D4: Table 2, ratio of Ki values, Pfizer laboratories data
D3 receptor = D3 receptor (Homo sapiens, UniProt P35462); assay: D3 receptor binding affinity, NIMH-PDSP
Chain of D3 receptor (P35462 whole entry): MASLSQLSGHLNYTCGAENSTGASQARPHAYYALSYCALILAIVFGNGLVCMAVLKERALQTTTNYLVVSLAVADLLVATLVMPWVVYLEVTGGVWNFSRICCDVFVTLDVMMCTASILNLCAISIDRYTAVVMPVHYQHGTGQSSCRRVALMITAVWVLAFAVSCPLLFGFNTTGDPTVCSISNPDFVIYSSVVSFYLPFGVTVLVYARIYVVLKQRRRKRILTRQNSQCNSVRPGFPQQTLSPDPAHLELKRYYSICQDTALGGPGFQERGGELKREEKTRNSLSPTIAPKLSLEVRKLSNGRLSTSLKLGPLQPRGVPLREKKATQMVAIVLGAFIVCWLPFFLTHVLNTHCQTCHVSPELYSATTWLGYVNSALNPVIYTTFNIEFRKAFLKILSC

D2 receptor [5] = biological target: T2, D2 receptor; assay: D2 receptor binding affinity, NIMH-PDSP
D4 receptor [6] = biological target: T1, D4 receptor; assay: D4 receptor binding affinity, NIMH-PDSP
[7] = Table 2, NIMH-PDSP data, MPA = Missed primary assay threshold of 50% inhibition

In the case of `O=C(CCCN1CCN(c2ccc(Cl)cc2)CC1)c1ccc(F)cc1` [Compound 1], the D4 selectivity (D4 receptor [1]) is given as 15 fold and the “fold D2 potency conferred by butyrophenone (compound 1 vs L745,870)” value (D2 receptor [2]) is given as under 4 fold.

With `Clc1ccc(N2CCCN(Cc3c[nH]c4ncccc34)CC2)cc1` [Compound 7, 3-{[4-(4-chlorophenyl)-1,4-diazepan-1-yl]methyl}-1H-pyrrolo[2,3-b]pyridine, HCl] the “fold lower affinity for the D2 receptor than compound 6” value (D2 receptor [3]) was 7 fold and the “fold lower affinity for the D4 receptor than compound 6” value (D4 receptor [4]; same assay procedure in the same laboratory) was 3 fold.

For `Clc1ccc(N2C3CCC2CN(Cc2c[nH]c4ncccc24)CC3)cc1` (stereo not drawn) [Compound 9, 3-[(1H-pyrrolo[2,3-b]pyridin-3-yl)methyl]-9-(4-chlorophenyl)-3,9-diazabicyclo[4.2.1]nonane], the Ki (D3 receptor) was 0.335 ± 0.178 µM, the Ki (D2 receptor [5]) was over 10 µM and the D2/D4 (D4 receptor [6]) was over 17. For the same compound, the Ki (D4 receptor [6]) was 0.584 ± 0.115 µM.

Work on `O=C(CCCN1CC2CC1N(c1ccc(Cl)cc1)C2)c1ccc(F)cc1` (stereo not drawn) [Compound 10] yielded a D2/D4 (D4 receptor [4]) of 0.33.

In the case of `OC1(c2ccc(Cl)cc2)CCN(Cc2c[nH]c3ncccc23)C1` (stereo not drawn) [Compound 13, 3-(4-chlorophenyl)-1-(1H-pyrrolo[2,3-b]pyridin-3-ylmethyl)pyrrolidin-3-ol], the “Ki ± SEM, D3” value (D3 receptor; [7]) is reported as “MPA” and the “Ki ± SEM, D2” value (D2 receptor [5]; [7]) is reported as “MPA”.

In the case of `c1cnc(N2CCN(Cc3c[nH]c4ncccc34)CC2)nc1` [Compound 15, 3-{(4-(pyrimidin-2-yl)piperazin-1-yl)methyl}-1H-pyrrolo[2,3-b]pyridine], the D2/D4 (D4 receptor [4]) is reported as 21.
